In US6506555B1, “Use of HIV protease inhibiting compounds” (Institut National de la Sante et de la Recherche Medicale …, priority 1998, dated 2003):

What was measured:
Hybridoma FT7.9 (MHC-I) = assay: IL-2 release by hybridoma FT7.9 cocultured with NOD pancreatic islets; type: cell-based, NOD mice
Protocol: (§1) Ritonavir (0.6 mg per 10 g of body weight per day) or a placebo (phosphate buffer PBS) was administered by the intraperitoneal route to NOD mice. The pancreatic islets were removed and cultured for 24 hours in the presence or in the absence of 2.5 μg/ml of ritonavir. The cells were then cocultured with MHC-1-restricted hybridomas (FT6.9 and FT7.9 for 24 hours). The quantity of IL-2 was assayed in the supernatant. The following tables present the quantities of IL-2 measured by a test of proliferation (cpm×10^−3).

MC57 fibroblasts (H-2b) = conditions: MC57 cells infected with LCMV, ritonavir 5 μg/ml for 36 hours
class I molecules = assay: Maturation and surface expression of class I molecules; type: cell-based
cytotoxic T lymphocytes = type: in vivo, C57BL/6 mice; conditions: splenocytes eight days after i.v. LCMV-WE; EL4 cells sensitized with GP33-41 or NP peptide
[1] = tested on: M113 cells presenting the MART-1 antigen; assay: TNFα production by M77-84 T lymphocytes in response to treated M113 melanoma cells; conditions: M113 cells cultured 24 hours with various concentrations
CD8+ T lymphocytes = assay: Proliferation of the CD8+ T lymphocytes in vivo (FACS of splenocytes); design: species or system mice; conditions: 200 pfu LCMV-WE i.v., anti-CD8 FACS
[2] = tested on: antibodies specific for the LCMV nucleoprotein and glycoprotein; assay: Antibody response to LCMV nucleoprotein and glycoprotein (ELISA); type: in vivo, mice; conditions: ELISA after four and eight weeks
Protocol: The antibodies specific for the LCMV nucleoprotein and for the LCMV glycoprotein were evaluated after four and eight weeks by an ELISA test as described in O. Planz, P. Seiler, H. Hengartner and R. M. Zinkernagel, Nature, 382, 629 […].

[3] = Appearance of type 1 diabetes in NOD mice; type: in vivo; conditions: ritonavir versus diluent
Protocol: FIG. 5 represents the percentage of nondiabetic NOD mice as a function of time, in the case of a treatment with ritonavir compared with administration of a diluent.
as §1, with “supernatant.” for “supernatant. The following tables present the quantities of IL-2 measured by a test of proliferation (cpm×10^−3).”

[4] = Experimental allergic encephalitis in mice and transfer of protection; type: in vivo
Protocol: In this experiment, healthy recipient mice not treated with ritonavir received, by the intravenous and/or peritoneal route, cells of the lymph nodes and of the spleen obtained from donor mice treated with ritonavir and having been subjected to the protocol for induction of EAE described above in Example a) and adapted to mice.
The popliteal, inguinal and mesenteric ganglia and the spleen are removed at D10 after injection of MBP, cultured in the presence of 50 μg/ml of MBP. On the third day of culture, the nonadherent cells are recovered, passed over Ficoll and injected into the recipient mice (10×10^6 injected cells).

[5] = in vivo PBS, in vitro ritonavir 2.5 μg/ml
[6] = in vivo ritonavir, in vitro PBS
[7] = in vivo ritonavir, in vitro ritonavir

CC(C)c1nc(CN(C)C(=O)N[C@H](C(=O)N[C@@H](Cc2ccccc2)C[C@H](O)[C@H](Cc2ccccc2)NC(=O)OCc2cncs2)C(C)C)cs1 [ritonavir]
percentage in brackets (reduction of IL-2 versus PBS/PBS) (Hybridoma FT7.9 (MHC-I); [5]): 53%
quantity of IL-2 measured by a test of proliferation (Hybridoma FT7.9 (MHC-I); [5]): 43 cpm×10^−3
percentage in brackets (reduction of IL-2 versus PBS/PBS) (Hybridoma FT7.9 (MHC-I); [6]): 24%
quantity of IL-2 measured by a test of proliferation (Hybridoma FT7.9 (MHC-I); [6]): 70 cpm×10^−3
percentage in brackets (reduction of IL-2 versus PBS/PBS) (Hybridoma FT7.9 (MHC-I); [7]): 20%
quantity of IL-2 measured by a test of proliferation (Hybridoma FT7.9 (MHC-I); [7]): 74 cpm×10^−3
lysis by the anti-LCMV cytotoxic T lymphocytes (MC57 fibroblasts (H-2b)): strongly inhibits
expression at the surface of the class I molecules (class I molecules): not significantly blocked
maturation of the class I molecules in the endoplasmic reticulum (resistance to endoglycosidase-H) (class I molecules): not significantly blocked
lysis of the target cells (direct lysis ex vivo after systemic infection) (cytotoxic T lymphocytes): reduced
presentation of MART-1 antigen: release of TNFα by M77-84 T lymphocytes [1]: inhibition
proliferation of the CD8+ T lymphocytes in response to the LCMV virus (CD8+ T lymphocytes): Inhibition
capacity for synthesizing anti-virus antibodies [2]: does not reduce
appearance of type 1 diabetes [3]: delays
symptoms of EAE in recipient mice after transfer of cells from donor mice treated with ritonavir ([4]; 10×10^6 lymph node and spleen cells injected, EAE induction at D30 after the transfer): no symptom of EAE
EAE in mice treated with ritonavir ([4]; mouse, in vivo): Results similar to those described in rats
